What was measured:
[1] = test system: H2-Dd expression; assay: H2-Dd surface expression on MHC-I^low lung tumor escaper cell lines (flow cytometry); format: cell-based, mouse; details: H2-Dd-downregulated cell lines; ADU-S100 50 μM, 24 h
Description: To uncover the mechanisms that would explain this resistance to treatment, ex vivo escaped tumors were isolated from each treatment group. […] To understand whether the observed H2-Dd downregulation was sufficient to impair tumor rejection, tumor cells with high H2-Dd isolated from untreated mice or tumor cells with low H2-Dd isolated from ALK vaccinated mice and treated with ICI were injected. Treatment with ICI induced rejection of tumors with high H2-Dd expression (FIGS. 6D-6E), consistent with previous experiments (FIG. 3E), but not of escaped tumors with low H2-Dd expression (FIGS. 6F-6G). Finally, it was asked whether H2-Dd expression could be restored by Stimulator of IFN genes (STING) signaling that can increase MHC-I expression in other models of lung cancer.
Allophycocyanin (APC)-conjugates H-2D^d-[…] (SEQ ID NO: 22) Dextramer reagents were obtained from Immudex (Immudex, Denmark). […] After washing step, cells were ready to be acquired. When referred, also PD-1 (clone RMP1-30; BV421-PD-1, BD Pharmingen™, USA) expression was evaluated together with dextramer staining, being added together with FITC-CD8. H2-Dd MHC-I expression was measured on relapsed tumors after treatment. […] All cells were acquired in a BD Celesta flow cytometer (BD Bioscience, USA) and analyzed by using the FlowJo software (FlowJo LCC, USA). […]

[2] = test system: hEML4-ALK Tg mice (ALK^+ lung tumors); assay: Lung tumor volume by MRI and survival in hEML4-ALK Tg mice; details: crizotinib 40 mg/kg or lorlatinib 2 mg/kg, MRI
Description: (§2) EML4-ALK transgenic (Tg) mice, which express the human EML4-ALK (E13;A20, human variant 1) driven by the SP-C promoter (henceforth referred as hEML4-ALK Tg mice), and BALB/c mice infected intratracheally with adenovirus carrying the CRISPR/Cas9 system to induce in vivo the Eml4-Alk rearrangement (E14;A20, mouse variant 1) (henceforth referred as Ad-EA mice). […] In these models, magnetic resonance imaging (MRI) (FIG. 1B) allowed precise cohort stratification and tumor follow-up.
Anatomical T2-weighted coronal images were acquired with a respiratory-triggered multislice fast spin echo RARE sequence (TR=4 s, TE=4.5 ms, Rare Factor (RF)=16, FOV=30 mm^2, Matrix=256×256, slices=16-20, slice thickness=1 mm, 2 averages, providing an in-plane spatial resolution of 117 μm) with a 7T MRI (Bruker Advance III, Ettlingen, Germany) scanner equipped with a quadrature 1H coil. Animals were anesthetized by intraperitoneal injection of a combination of ROMPUN® (Bayer, 5 mg/kg) and ZOLETIL 100® (Laboratoires Virbac, 20 mg/kg); breathing was monitored during acquisition of the MR images with a respiratory sensor (SA Instruments, Inc.). Tumor volumes and numbers of masses calculations were performed by manual segmentation (slice by slice contouring) with ITK-SNAP software (www.itksnap.org). […]

[3] = test system: ALK-rearranged (ALK^+) NSCLC; details: patients with resistance to earlier ALK TKIs; cited from earlier work
[4] = test system: Ad-EA mice (mEml4-Alk rearranged lung tumor); assay: Lung tumor volume by MRI and survival in Ad-EA mice; format: in vivo, mouse
Description: as §2
Anatomical T2-weighted coronal images were acquired with a respiratory-triggered multislice fast spin echo RARE sequence (TR=4 s, TE=4.5 ms, Rare Factor (RF)=16, FOV=30 mm^2, Matrix=256×256, slices=16-20, slice thickness=1 mm, 2 averages, providing an in-plane spatial resolution of 117 μm) with a 7T MRI (Bruker Advance III, Ettlingen, Germany) scanner equipped with a quadrature 1H coil. Animals were anesthetized by intraperitoneal injection of a combination of ROMPUN® (Bayer, 5 mg/kg) and ZOLETIL 100® (Laboratoires Virbac, 20 mg/kg); breathing was monitored during acquisition of the MR images with a respiratory sensor (SA Instruments, Inc.). Tumor volumes and numbers of masses calculations were performed by manual segmentation (slice by slice contouring) with ITK-SNAP software (www.itksnap.org).
Syngeneic mice models transplanted with tumor cells were treated intraperitoneally with 200 μg of anti-PD-1 and/or anti-CTLA-4 (clone 9D9, Bioxcell), on days 3, 6, and 9 post-tumor transplantation (3 injections/per mouse).

[5] = test system: mEml4-Alk cell line tumors; assay: mEml4-Alk syngeneic tumors in BALB/c mice; format: in vivo; details: mEml4-Alk cell lines in syngeneic BALB/c mice
Description: (§1) “[…]” is disclosed as SEQ ID NO: 22. […] “[…]” is disclosed as SEQ ID NO: 22.
To determine whether these differences in anaplastic lymphoma kinase (ALK)-specific CD8^+ T-cell responses translated into a different anti-tumor activity, mice were treated with either flank or lung tumors with immune checkpoint inhibitors (ICIs). […] Tumor-free mice were then rechallenged to assess ALK-specific CD8^+ T-cell memory response. […] In contrast to flank tumors, ICI was ineffective against Eml4-Alk^[…]-1 (“[…]” disclosed as SEQ ID NO: 22) lung tumors as measured by overall survival (FIG. 3I), and lung tumor histology (FIG. 3J). Systemic ALK-specific CD8^+ T-cell response was analyzed in mice bearing flank or lung tumors. […] It was concluded that the robustness of the spontaneous ALK-specific CD8^+ T-cell response depended on tumor localization and determined the response to immune checkpoint inhibitors (ICIs).
For syngeneic subcutaneous tumor transplantation, a total of 1×10^6 immortalized mouse cells were subcutaneously inoculated into the right dorsal flanks of 8-12 week-old BALB/c mice in 100 μL of phosphate-buffered saline (PBS). […] Tumor volume was measured by caliper measurements every 3 days in a blinded fashion and calculated according to the following equation: H. W^2/2. […]

[6] = test system: mEml4-Alk cell lines; assay: Cell viability assay (CellTiter-Glo) in mEml4-Alk cell lines; format: cell-based; details: Mus musculus, mEml4-Alk^1, 72 h
Description: as §1
Cell viability assay was performed in all immortalized mouse cell lines by using CellTiter-Glo (Promega, USA) according to the manufacturer's instructions. […] After 72 h, CellTiter-Glo reagent was added to each well and luminescence output data were taken by GloMax-Multi Detection System (Promega, USA). The correspondent IC50 value for each ALK inhibitor was calculated with GraphPad Prism 9 software (GraphPad, USA).

| SMILES | H2-Dd expression [1] | tumor response at the end of treatment [2] | average disease control [3] | tumor response at the end of treatment ([4]; crizotinib 40 mg/kg or lorlatinib 2 mg/kg, MRI) | tumor response by MRI, prolonged treatment ([4]; lorlatinib up to 8 weeks, tumors relapsed upon suspension) | tumor sensitivity in vivo [5] | IC50 [6] |
| --- | --- | --- | --- | --- | --- | --- | --- |
| Nc1ncnc2c1ncn2[C@@H]1O[C@@H]2CO[P@](=O)(S)O[C@@H]3[C@H](O)[C@@H](CO[P@@](=O)(S)O[C@H]2[C@H]1O)O[C@H]3n1cnc2c(N)ncnc21 [ADU-S100, reference compound] | strongly upregulating H2-Dd expression | – | – | – | – | – | – |
| C[C@H]1Oc2cc(cnc2N)-c2c(nn(C)c2C#N)CN(C)C(=O)c2ccc(F)cc21 [lorlatinib] | – | almost complete regression of tumors | 7 months | almost complete regression of tumors | complete remission by MRI | marked sensitivity | 1.17 nM |

Source: US20250057930A1, “ANAPLASTIC LYMPHOMA KINASE (ALK) CANCER VACCINES AND METHODS OF USE THEREOF” (The Children's Medical Center Corporation, priority 2022, published 2025)
